Assay results: patent US20240124454A1, “TRICYCLIC COMPOUND AND USE THEREOF” (NANJING ZAIMING PHARMACEUTICAL CO., LTD., priority 2020, published 2024)
Like-named read-outs stand apart in the source and are kept apart here.

Tests used:
CYP2D6 = CYP2D6 (Homo sapiens (Human), UniProt P10635); experiment: CYP2D6 inhibition in human liver microsomes (dextromethorphan substrate); assay type: in vitro ADME; conditions: human liver microsome
Protocol: Test Example 7. Inhibitory Effect of Compound of the Present Application on Enzymatic Activity of CYP2C9, CYP2D6, and CYP3A4
The inhibition of CYP2C9, CYP2D6, and CYP3A4 activity by the compound of the present application was determined using the following method.
I. Experimental materials and instruments • 1. Human liver microsome (Corning 452117) • 2. NADPH (Solarbio 705Y021) • 3. Positive substrates diclofenac (Sigma SLBV3438), dextromethorphan (TRC 3-EDO-175-1), and midazolam (Cerilliant FE01161704) • 4. Positive inhibitors sulfaphenazole (D. Ehrenstorfer GmbH 109012), quinidine (TCI WEODL-RE), and ketoconazole (Sigma 100M1091V) • 5. AB Sciex Triple Quad 5500 liquid chromatography-mass spectrometry system
1. Preparation of 100 mM phosphate-buffered saline (PBS): 7.098 g Na2HPO4 was weighed. 500 mL pure water was added. The mixture was dissolved by sonication to give solution A. 3.400 g KH2PO4 was weighed. 250 mL pure water was added. The mixture was dissolved by sonication to give solution B. The solution A was placed in a stirrer, and the solution B was slowly added until the pH reached 7.4, so that the 100 mM PBS buffer was prepared.
2. A 10 mM NADPH solution was prepared with a 100 mM PBS buffer. A 10 mM stock solution of the compound of the present application was diluted with DMSO to give a compound working solution at a concentration of 200×(6000, 2000, 600, 200, 60, 20, and 0 μM). The positive inhibitor stock solution was diluted with DMSO to give a positive inhibitor working solution at a concentration of 200×(sulfaphenazole, 1000, 300, 100, 30, 10, 3, and 0 μM; quinidine/ketoconazole, 100, 30, 10, 3, 1, 0.3, and 0 μM). Substrate working solutions (120 μM diclofenac, 400 μM dextromethorphan, and 200 μM midazolam) at a concentration of 200× were prepared with water, acetonitrile, or acetonitrile/methanol.
3. 2 μL of 20 mg/mL liver microsome solution, 1 μL of substrate working solution, 1 μL of compound working solution, and 176 μL of PBS buffer were taken, mixed well, and placed in a 37° C. water bath for pre-incubation for 15 min. 1 μL of sulfaphenazole, quinidine, or ketoconazole working solution was added to the positive control group instead of the compound working solution. At the same time, 10 mM NADPH solution was placed together in the 37° C. water bath for pre-incubation for 15 min. After 15 min, 20 μL of NADPH was added to each well to initiate the reaction. The mixture was incubated at 37° C. for 5 min (CYP2C9), 20 min (CYP2D6), or 5 min (CYP3A4). All incubated samples were in duplicate. After incubation for the corresponding period of time, 400 μL of icy methanol containing internal standard was added to all samples to stop the reaction. The mixture was vortexed, mixed well, and centrifuged for 40 min at 4° C. at 3220 g. 100 μL of the supernatant was transferred to a feeding plate after the centrifugation was completed, and 100 μL ultrapure water was added. The mixture was well mixed for LC-MS/MS analysis.
The reduction of metabolite production in the treatment groups versus the control group was compared by the peak area ratios of the sample to the internal standard, and the IC50 value was calculated using Excel XLfit 5.3.1.3.
Percentages of remaining activity were calculated according to the following formula:
Remaining activity%=peak area ratio of metabolite to internal standardtest sample/peak area ratio of metabolite to internal standardblank solvent×100%.

[1] = Pharmacokinetics in Balb/c Nude mice; assay type: in vivo; conditions: female, mouse, plasma; for bioavailability: Balb/c Nude, vs IV 1 mg/kg; for AUC(0-t): Balb/c Nude mice, read-out: AUC0-24
Protocol: Test Example 9. Determination of Pharmacokinetics of Compounds of Present Application
The pharmacokinetics of the compounds of the present application were determined in mice using the following method.
I. Materials: • Balb/c Nude mice, purchased from Beijing Vital River Laboratory Animal Technology Co., Ltd. • NMP (N-methyl-2-pyrrolidone), Solutol® HS 15 (polyoxyethylenated 12-hydroxystearic acid), and Vitamin E TPGS (D-a-tocopherol-polyethylene glycol 1000 succinate), purchased from Sigma. • Acetonitrile, purchased from Merck (USA).
II. Vehicle preparation: • 10% aqueous VE TPGS solution: 1 g of VE TPGS was dissolved in purified water, and the volume was brought to 10 mL. • 5% NMP+10% Solutol® HS 15+85% water: 0.5 mL of NMP was measured using a pipette, 1 g of Solutol® HS 15 was weighed, and the volume was brought to 10 mL with water.
6 female Balb/c Nude mice (20-30 g, 4-6 weeks) were randomized into 2 groups of 3. Group 1 was administered with 1 mpk (1 mg/kg) test compound by injection at the tail vein (IV), and the vehicle was 5% NMP+10% Solutol® HS 15+85% water. Group 2 was administered with 1 or 3 mpk test compound by oral administration (PO) (see the table below for specific doses), and the vehicle was 5% NMP+10% Solutol® HS 15+85% water or 10% Vitamin E TPGS aqueous solution. Before the experiment, all animals were given free access to food and water. Blood samples of the mice in each group were collected intravenously pre-dose and at 0.083 h (only the intravenous injection group), 0.25 h, 0.5 h, 1 h, 2 h, 4 h, 6 h, 8 h, and 24 h post-dose. The whole blood samples were collected in K2EDTA vacutainers, and the plasma samples were prepared by 5 min of centrifugation (4000 rpm, 4° C.).
10 μL of mouse plasma was added to 150 μL acetonitrile solvent (containing an internal standard) to precipitate the protein. The mixture was vortexed for 0.5 min and centrifuged (14000 rpm) for 5 min. The supernatant was diluted 2-fold with water containing 0.1% (v/v) FA and quantitatively detected on an LC-MS/MS system (AB Sciex Triple Quad 6500+). When the concentration of the sample was measured, quality control samples were also analyzed and a Balb/c Nude mouse plasma standard curve was plotted. For 10× diluted samples, 2 μL of the sample was added to 18 μL of blank plasma. The mixture was vortexed for 0.5 min. Then 300 μL of acetonitrile solvent (containing an internal standard) was added to precipitate the protein. The other steps were the same as those in undiluted samples.

[2] = PO 1 mg/kg, vehicle 5% NMP + 10% Solutol HS 15 + 85% water
[3] = PO 3 mg/kg, vehicle 10% VE TPGS aqueous solution

CYP2D6, sequence (P10635 whole entry): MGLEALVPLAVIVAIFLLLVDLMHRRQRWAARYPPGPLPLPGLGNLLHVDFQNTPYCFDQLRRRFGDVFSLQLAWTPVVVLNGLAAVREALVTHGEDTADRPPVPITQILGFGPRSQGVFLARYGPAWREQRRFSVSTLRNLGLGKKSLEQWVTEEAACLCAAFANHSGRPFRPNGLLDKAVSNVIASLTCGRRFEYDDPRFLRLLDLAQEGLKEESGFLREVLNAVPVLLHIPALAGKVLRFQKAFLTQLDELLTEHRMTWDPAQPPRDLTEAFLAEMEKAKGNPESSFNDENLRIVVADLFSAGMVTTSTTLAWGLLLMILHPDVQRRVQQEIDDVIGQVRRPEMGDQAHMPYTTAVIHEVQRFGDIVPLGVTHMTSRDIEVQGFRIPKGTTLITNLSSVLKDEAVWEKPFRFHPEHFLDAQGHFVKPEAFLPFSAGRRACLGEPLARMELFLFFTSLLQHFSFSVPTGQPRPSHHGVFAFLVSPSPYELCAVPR

SMILES	IC50 (CYP2D6) [µM]	bioavailability [1, 2] [%]	AUC(0-t) [1, 2] [ng·h/mL]	bioavailability [1, 3] [%]	AUC(0-t) [1, 3] [ng·h/mL]
Cc1ncccc1-n1c(=O)c2ncn(C)c2c2ccc(C(F)(F)F)nc21 (atropisomer, axis not shown) [Compound 20, 1-methyl-5-(2-methylpyridin-3-yl)-7-(trifluoromethyl)-1,5-dihydro-4H-imidazo[4,5-c][1,8]naphthyridin-4-one]	> 30	–	–	–	–
Cn1cnc2c(=O)n(-c3cccnc3C3CC3)c3cc(Cl)ccc3c21 (single isomer, unassigned) [Compound 49-P2, 7-chloro-5-(2-cyclopropylpyridin-3-yl)-1-methyl-1,5-dihydro-4H-imidazo[4,5-c]quinolin-4-one]	> 30	89.6	11300	–	–
Cc1ncccc1-n1c(=O)c2ncoc2c2ccc(C(F)(F)F)nc21 [Compound 40, 5-(2-methylpyridin-3-yl)-7-(trifluoromethyl)oxazolo[4,5-c][1,8]naphthyridin-4(5H)-one]	> 30	–	–	–	–
Cn1cnc2c(=O)n(-c3cccnc3C3CC3)c3cc(C(F)(F)F)ccc3c21 (single isomer, unassigned) [Compound 48-P2, 5-(2-cyclopropylpyridin-3-yl)-1-methyl-7-(trifluoromethyl)-1,5-dihydro-4H-imidazo[4,5-c]quinolin-4-one]	> 30	~100	24400	–	–
Cn1cnc2c(=O)n(-c3cccc(F)c3Cl)c3cc(Cl)ccc3c21 [Compound 39, 7-chloro-5-(2-chloro-3-fluorophenyl)-1-methyl-1,5-dihydro-4H-imidazo[4,5-c]quinolin-4-one]	> 30	–	–	–	–
Cn1cnc2c(=O)n(-c3cccc(F)c3Cl)c3nc(C(F)(F)F)ccc3c21 (atropisomer, axis not shown) [Compound 25, 5-(2-chloro-3-fluorophenyl)-1-methyl-7-(trifluoromethyl)-1,5-dihydro-4H-imidazo[4,5-c][1,8]naphthyridin-4-one]	> 30	~100	5840	–	–
Cn1cnc2c(=O)n(-c3cccc(F)c3Cl)c3nc(C(F)(F)F)ccc3c21 (single isomer, unassigned) [Compound 25-P2, 5-(2-chloro-3-fluorophenyl)-1-methyl-7-(trifluoromethyl)-1,5-dihydro-4H-imidazo[4,5-c][1,8]naphthyridin-4-one]	> 30	–	–	~100	30300
O=c1c2ncoc2c2ccc(C(F)(F)F)nc2n1-c1cccnc1C1CC1 (single isomer, unassigned) [Compound 81-P2, 5-(2-cyclopropylpyridin-3-yl)-7-(trifluoromethyl)oxazolo[4,5-c][1,8]naphthyridin-4(5H)-one]	> 30	–	–	–	–
Cn1cnc2c(=O)n(-c3cccnc3C3CC3)c3nc(C(F)(F)F)ccc3c21 (single isomer, unassigned) [Compound 42-P2, 5-(2-cyclopropylpyridin-3-yl)-1-methyl-7-(trifluoromethyl)-1,5-dihydro-4H-imidazo[4,5-c][1,8]naphthyridin-4-one]	> 30	~100	10500	–	–
Cn1cnc2c(=O)n(-c3cccnc3C(F)(F)F)c3nc(C(F)(F)F)ccc3c21 (single isomer, unassigned) [Compound 41-P2, 1-methyl-7-(trifluoromethyl)-5-(2-(trifluoromethyl)pyridin-3-yl)-1,5-dihydro-4H-imidazo[4,5-c][1,8]naphthyridin-4-one]	18.2	~100	10500	–	–
Cc1ncccc1-n1c(=O)c2ncn(C)c2c2ccc(C(F)(F)F)cc21 [Compound 45, 1-methyl-5-(2-methylpyridin-3-yl)-7-(trifluoromethyl)-1,5-dihydro-4H-imidazo[4,5-c]quinolin-4-one]	> 30	–	–	–	–
